Laboratory results as given in paper PMC8067754, “Active Transport of Hepatotoxic Pyrrolizidine Alkaloids in HepaRG Cells” (International Journal of Molecular Sciences, 2021).
Values joined by “and” are separate entries in the source; they are usually repeats but may differ in a detail not shown here. Equal values may be shown once.

Tested on: HepaRG cells
Assay: Time-dependent PA depletion and PANO formation in cell culture medium of HepaRG cells at 37 °C and 4 °C (LC-MS/MS)
Conditions: for PA content in cell culture medium, Mean [%]: 700 nM PA, percent of initial PA concentration; for reduction of PA content in the supernatant / PANO formation in cell culture medium: 37 °C; for reduction of PA content in the supernatant: after 24 h, 700 nM; for uptake and toxicity (grading): Figure 2a, toxicity grading with ref 41; for PANO formation in cell culture medium: 700 nM parent PA
Protocol: In order to measure time-dependent depletion of PA and PANO content in cell culture medium, cells were seeded at a density of 0.2 × 10^6 cells per well in a 6-well plate and cultivated as described in Section 4.2. After four weeks of cultivation, cells were adapted to serum-free medium and medium substituted with insulin, transferrin, selenium (ITS) serum extender (Capricorn Scientific, Ebsdorfergrund, Germany) 48 h prior to PA incubation for optimal LC-MS/MS measurements. […] Samples were taken after 2 h, 4 h, 8 h and 24 h.
Briefly, chromatographic separation of PA/PANO analytes was achieved on a 50 × 2.1 mm Kinetex ™ 2.6 μm CoreShell EVO C18 100 Å column protected by a SecurityGuard ™ ULTRA EVO C 18 2.1 mm guard column (both Phenomenex, Aschaffenburg, Germany) at a flow rate of 0.4 mL/min on a Shimadzu high performance liquid chromatography (HPLC) apparatus (LC-20AB, SIL-20AC HT, CTO-20AC, CBM-20A, Duisburg, Germany) coupled to an API4000 triple quadrupole MS (Sciex, Darmstadt, Germany). The following MS parameters were used for measurements in positive electrospray ionisation (ESI+) mode: ionisation voltage 2500 V, nebuliser gas 50 psi, heating gas 50 psi, curtain gas 30 psi, temperature 600 °C, collision gas level 7. The substance specific parameters are summarized in Kaltner et al. 2019 [79].

`C/C=C(/C)C(=O)O[C@H]1CCN2CC=C(COC(=O)[C@@](O)([C@@H](C)O)C(C)(C)O)[C@H]12` [Heliosupine, heliosupine] was tested, and the “PA content in cell culture medium, Mean [%]” value (“PA content … [%]” below) (HepaRG, 4 °C (cold), 2h) was 91.4819%, the “PA content … [%]” value (HepaRG, 4 °C (cold), 4h) was 87.9748% and the “PA content … [%]” value (HepaRG, 4 °C (cold), 8h) was 89.7595%. The “PA content … [%]” value (HepaRG, 4 °C (cold), 24h) was 78.8823%, the “PA content … [%]” value (HepaRG, 37 °C (warm), 0h) was 95.6507% and the “PA content … [%]” value (HepaRG, 37 °C (warm), 2h) was 59.8398%. The “PA content … [%]” value (HepaRG, 37 °C (warm), 4h) was 37.2399%, the “PA content … [%]” value (HepaRG, 37 °C (warm), 8h) was 12.933% and the “PA content … [%]” value (HepaRG, 37 °C (warm), 24h) was 0.2071%. For the same compound, the “reduction of PA content in the supernatant” value (HepaRG) was “highest decline”, the “uptake and toxicity (grading)” value (HepaRG) was “strong” and the “PA in medium, Mean [%]” value (cold, 0h) was 100%. The “PA in medium, single replicates (repl.)” value (cold, 0h) was 100%, the “PA in medium, single replicates (repl.)” value (cold, 2h) was 95.0989% and 96.7114% and the “PA in medium, Mean [%]” value (cold, 4h) was 98.142%. The “PA in medium, single replicates (repl.)” value (cold, 4h) was 94.7313% and 89.2662% and 110.429%, the “PA in medium, Mean [%]” value (cold, 8h) was 98.6729% and the “PA in medium, single replicates (repl.)” value (cold, 8h) was 94.1093%. The “PA in medium, Mean [%]” value (cold, 24h) was 85.6503%, the “PA in medium, single replicates (repl.)” value (cold, 24h) was 84.4985% and 86.6382% and the “PA in medium, Mean [%]” value (warm, 0h) was 100%. For the same compound, the “PA in medium, single replicates (repl.)” value (warm, 0h) was 100%, the “PA in medium, Mean [%]” value (warm, 2h) was 66.3099% and the “PA in medium, single replicates (repl.)” value (warm, 2h) was 44.4302% and 65.8608% and 88.6387%. For the same compound, the “PA in medium, Mean [%]” value (warm, 4h) was 41.9165%, the “PA in medium, single replicates (repl.)” value (warm, 4h) was 27.0977% and 40.0579% and 58.5941% and the “PA in medium, Mean [%]” value (warm, 8h) was 15.145%. For the same compound, the “PA in medium, single replicates (repl.)” value (warm, 8h) was 8.52% and 13.2978% and 23.6169%, the “PA in medium, Mean [%]” value (warm, 24h) was 0.2418% and the “PA in medium, single replicates (repl.)” value (warm, 24h) was 0.3741% and 0.0766% and 0.2748%.
In the case of `CC(C)[C@](O)(C(=O)OCC1=CCN2CC[C@@H](O)[C@@H]12)[C@@H](C)O` [Lycopsamine, lycopsamine], the “PA content … [%]” value (HepaRG, 4 °C (cold), 0h) is reported as 115.66%, the “PA content … [%]” value (HepaRG, 4 °C (cold), 2h) is reported as 114.666% and the “PA content … [%]” value (HepaRG, 37 °C (warm), 2h) is reported as 110.255%. The “PA content … [%]” value (HepaRG, 37 °C (warm), 4h) was 110.221%, the “reduction of PA content in the supernatant” value (HepaRG) was “only little reduction” and the “PA in medium, Mean [%]” value (cold, 0h) was 100%. The “PA in medium, single replicates (repl.)” value (cold, 0h) was 100%, the “PA in medium, Mean [%]” value (cold, 2h) was 98.8899% and the “PA in medium, single replicates (repl.)” value (cold, 2h) was 94.3912% and 95.7309%. The “PA in medium, Mean [%]” value (cold, 4h) was 96.1322%, the “PA in medium, single replicates (repl.)” value (cold, 4h) was 91.7949% and 100.05% and the “PA in medium, Mean [%]” value (cold, 8h) was 96.74%. The “PA in medium, single replicates (repl.)” value (cold, 8h) was 94.6446% and 94.7892% and 95.0549%, the “PA in medium, single replicates (repl.)” value (cold, 24h) was 89.7134% and 94.6663% and 94.1752% and 95.3538% and the “PA in medium, Mean [%]” value (warm, 0h) was 100%. For the same compound, the “PA in medium, single replicates (repl.)” value (warm, 0h) was 100%, the “PA in medium, Mean [%]” value (warm, 2h) was 96.1576% and the “PA in medium, single replicates (repl.)” value (warm, 2h) was 89.3775%. The “PA in medium, Mean [%]” value (warm, 4h) was 95.7481%, the “PA in medium, single replicates (repl.)” value (warm, 4h) was 96.6594% and the “PA in medium, Mean [%]” value (warm, 8h) was 94.2429%. For the same compound, the “PA in medium, single replicates (repl.)” value (warm, 8h) was 86.6726% and 92.5981% and the “PA in medium, single replicates (repl.)” value (warm, 24h) was 92.6515%.
In the case of `C/C=C(/C)C(=O)O[C@@H]1CCN2CC=C(COC(=O)[C@@](O)([C@H](C)O)C(C)(C)O)[C@H]12` [Echimidine, echimidine], the “PA content … [%]” value (HepaRG, 4 °C (cold), 4h) is reported as 98.8433%, the “PA content … [%]” value (HepaRG, 4 °C (cold), 24h) is reported as 89.3074% and the “PA content … [%]” value (HepaRG, 37 °C (warm), 2h) is reported as 85.2823%. The “PA content … [%]” value (HepaRG, 37 °C (warm), 4h) was 68.4318%, the “PA content … [%]” value (HepaRG, 37 °C (warm), 8h) was 40.2531% and the “PA content … [%]” value (HepaRG, 37 °C (warm), 24h) was 3.384%. The “uptake and toxicity (grading)” value (HepaRG) was “medium”, the “PA in medium, Mean [%]” value (cold, 0h) was 100% and the “PA in medium, single replicates (repl.)” value (cold, 0h) was 100%. The “PA in medium, Mean [%]” value (cold, 2h) was 97.014%, the “PA in medium, single replicates (repl.)” value (cold, 2h) was 86.5736% and the “PA in medium, Mean [%]” value (cold, 4h) was 92.1476%. The “PA in medium, single replicates (repl.)” value (cold, 4h) was 83.0216% and 84.3494%, the “PA in medium, Mean [%]” value (cold, 8h) was 94.8515% and the “PA in medium, single replicates (repl.)” value (cold, 8h) was 82.9788% and 110.397%. For the same compound, the “PA in medium, Mean [%]” value (cold, 24h) was 82.2598%, the “PA in medium, single replicates (repl.)” value (cold, 24h) was 57.2342% and 76.5517% and the “PA in medium, Mean [%]” value (warm, 0h) was 100%. The “PA in medium, single replicates (repl.)” value (warm, 0h) was 100%, the “PA in medium, Mean [%]” value (warm, 2h) was 80.9264% and the “PA in medium, single replicates (repl.)” value (warm, 2h) was 77.0539% and 95.3255%. The “PA in medium, Mean [%]” value (warm, 4h) was 64.0995%, the “PA in medium, single replicates (repl.)” value (warm, 4h) was 50.2783% and 58.3297% and 83.6904% and the “PA in medium, Mean [%]” value (warm, 8h) was 36.9411%. The “PA in medium, single replicates (repl.)” value (warm, 8h) was 23.0433% and 32.0944% and 55.6854%, the “PA in medium, Mean [%]” value (warm, 24h) was 2.921% and the “PA in medium, single replicates (repl.)” value (warm, 24h) was 0.7358% and 1.728% and 6.298%.
For `C/C=C1/C[C@@H](C)[C@@](C)(O)C(=O)OC/C2=C/CN(C)CC[C@@H](OC1=O)C2=O` [Senkirkine, senkirkine], the “PA content … [%]” value (HepaRG, 4 °C (cold), 8h) was 116.261%, the “PA content … [%]” value (HepaRG, 4 °C (cold), 24h) was 100.349% and the “PA content … [%]” value (HepaRG, 37 °C (warm), 24h) was 51.3803%. The “PANO formation in cell culture medium” value (HepaRG, up to 24 h) was “did not form PANOs”, the “uptake and toxicity (grading)” value (HepaRG) was “medium” and the “PA in medium, Mean [%]” value (cold, 0h) was 100%. For the same compound, the “PA in medium, single replicates (repl.)” value (cold, 0h) was 100%, the “PA in medium, single replicates (repl.)” value (cold, 2h) was 96.9078% and the “PA in medium, single replicates (repl.)” value (cold, 4h) was 94.744% and 91.9958%. For the same compound, the “PA in medium, Mean [%]” value (cold, 8h) was 99.7692%, the “PA in medium, single replicates (repl.)” value (cold, 8h) was 96.8217% and the “PA in medium, Mean [%]” value (cold, 24h) was 86.0777%. For the same compound, the “PA in medium, single replicates (repl.)” value (cold, 24h) was 79.1115%, the “PA in medium, Mean [%]” value (warm, 0h) was 100% and the “PA in medium, single replicates (repl.)” value (warm, 0h) was 100%. The “PA in medium, Mean [%]” value (warm, 2h) was 96.897%, the “PA in medium, single replicates (repl.)” value (warm, 2h) was 86.8159% and 96.0701% and the “PA in medium, Mean [%]” value (warm, 4h) was 92.4068%. For the same compound, the “PA in medium, single replicates (repl.)” value (warm, 4h) was 82.3204% and 92.3164%, the “PA in medium, Mean [%]” value (warm, 8h) was 78.7411% and the “PA in medium, single replicates (repl.)” value (warm, 8h) was 72.1889% and 78.0729% and 85.9614%. The “PA in medium, Mean [%]” value (warm, 24h) was 45.8528% and the “PA in medium, single replicates (repl.)” value (warm, 24h) was 40.9466% and 44.2184% and 52.3933%.
For `C/C=C1/C[C@@H](C)[C@@](C)(O)C(=O)OCC2=CC[N+]3([O-])CC[C@@H](OC1=O)[C@@H]23` (some centres unmarked) [senecionine N-oxide], the “PANO formed in cold-incubated cells, of the applied mother compound” value (HepaRG, 4 °C, 700 nM senecionine, up to 24 h, Figure 2d) was less than 1% and the “PANO formation in cell culture medium” value (HepaRG, up to 24 h) was “increased with time”.
With `C/C=C1/C[C@@H](C)[C@](O)(CO)C(=O)OCC2=CC[N@@+]3([O-])CC[C@@H](OC1=O)[C@@H]23` [retrorsine N-oxide] the “PANO formation in cell culture medium” value (HepaRG, up to 24 h) was “increased with time”.
`C/C=C(/C)C(=O)O[C@@H]1CC[N+]2([O-])CC=C(COC(=O)[C@@](O)([C@H](C)O)C(C)(C)O)[C@H]12` (some centres unmarked) [echimidine N-oxide] was tested, and the “PANO formation in cell culture medium” value (HepaRG, up to 24 h) was “increased with time”.
